Reference: US20250381157A1, “ANTIMICROBIAL COMPOUNDS” (priority 2022, published 2025)
Like-named read-outs stand apart in the source and are kept apart here.

Legend:
[1] = test system: CAMP gene (encoding human cathelicidin); assay: Induction test: ProLL-37-luciferase fusion protein expression in HT-29 CampLuc MN8 reporter cell line; type: cell-based; conditions: after 24h; luminescence relative to untreated cells
Protocol: FIG. 2: Induction test. […] Statistical analysis was performed by comparison of each compound-treatment conditions to the corresponding vehicle control using two-way ANOVA with Dunnett post-hoc test. Only significant changes were indicated, ** p<0.01, *** p<0.001, **** p<0.0001.
MN8CampLuc cells were handled according to Nylén et. al. with the following exception when predifferention of cells were performed before induction: […]

[2] = test system: Caco-2 cells; assay: Caco-2 cell study (permeability, efflux); type: in vitro ADME; conditions: for Active efflux: Caco-2
Description: Caco-2 cells are used as a model of the intestinal epithelial barrier.

[3] = Dose escalation toxicity and MTD in mouse
[4] = in vivo; conditions: mouse, po, 7 Days PO once daily MTD - mouse
[5] = Plasma stability Rat; type: in vitro ADME
[6] = Rat pharmacokinetics (IV, PO); type: in vivo; conditions: for half-life / bioavailability: in vivo; for bioavailability: oral
[7] = Plasma stability Mouse; type: in vitro ADME
[8] = Stability SGD, SIF w. Enzymes; type: in vitro ADME
[9] = test system: Enterotoxigenic Escherichia coli (ETEC) (ATCC ® 35401 ™, H10407); type: in vivo, mouse; conditions: for Clinical observation (Mean Score) Hunched Posture / Clinical observation (Mean Score) Rough coat / Clinical observation (Mean Score) hyperpnea: 1 mg/kg PO q12h 9 days, 0=absent 1=present
Protocol: FIG. 3: Schematic protocol for neutropenia mouse model
A schematic of the experimental model is depicted in FIG. 3.
That experiment was performed in the presence of cyclophosphamide, which is known to cause febrile neutropenia due to translocation of bacteria to vital organs.

[10] = PO, read-out: Elimination T½ (min) PO - rat
[11] = intravenous, PIV, read-out: Elimination T½ (min) PIV - rat
[12] = 1 mg/kg, PO, twice daily(q12h), 9 days
[13] = individual animals, 1 mg/kg, PO, twice daily(q12h), 9 days

With `CCC(=O)NCCOCC(=O)N(C)Cc1ccc(C(=O)Nc2ccccc2N)cc1` [Compound 2.2, N-(2-aminophenyl)-4-{[N-methyl-2-(2-propanamidoethoxy)acetamido]methyl}benzamide] the “expression of ProLL-37-luciferase fusion protein” value (“expression” below) [1] was “induced expression”.
In the case of `Nc1ccccc1NC(=O)c1ccc(NC(=O)COCc2cn(CCO)nn2)cc1` [HO53], the “Caco-2 Permeability A-B dir.” value [2] is reported as “Low”, the Active efflux [2] is reported as “Yes” and the “Dose Esc. Tox mouse PO” value [3] is reported as greater than 100 mg/kg. The “Dose Esc. Tox mouse iv” value [3] was greater than 100 mg/kg, the MTD at 7 days [4] was greater than 50 mg/kg and the “Plasma stability Rat” value [5] was “High”. For the same molecule, the “C_max IV - rat” value [6] was 21 µM, the “V-d IV - rat” value [6] was 1.7 L/kg and the “C_max PO - rat” value ([6]; PO) was 0.09 µM. The half-life [6, 10] was 35 min, the half-life [6, 11] was 126 min and the bioavailability [6] was 3%. The “Plasma stability Mouse” value [7] was “Low” and the “Stability SGD, SIF w. Enzymes” value [8] was “High”.
In the case of `Nc1ccccc1NC(=O)c1ccc(OCc2cn(CCO)nn2)cc1` [HO56], the “Caco-2 Permeability A-B dir.” value [2] is reported as “Low”, the Active efflux [2] is reported as “Yes” and the “Dose Esc. Tox mouse PO” value [3] is reported as greater than 200 mg/kg. For the same molecule, the “Dose Esc. Tox mouse iv” value [3] was 10 mg/kg, the MTD at 7 days [4] was greater than 50 mg/kg and the “Plasma stability Rat” value [5] was “High”. The “C_max IV - rat” value [6] was 26 µM, the “V-d IV - rat” value [6] was 3.07 L/kg and the “C_max PO - rat” value ([6]; PO) was 1.2 µM. The half-life [6, 10] was 132 min, the half-life [6, 11] was 94 min and the bioavailability [6] was 16%. The “Plasma stability Mouse” value [7] was “High” and the “Stability SGD, SIF w. Enzymes” value [8] was “High”.
With `C#CCCCC(=O)Oc1ccc(C(=O)Nc2ccccc2N)cc1` [Compound 2.3, 4-[(2-aminophenyl)carbamoyl]phenyl hex-5-ynoate] the “expression” value [1] was “induced expression”.
In the case of `C#CCOCC(=O)N(C)Cc1ccc(C(=O)Nc2ccccc2N)cc1` [Compound 2.1, N-(2-aminophenyl)-4-[(methyl{[(prop-2-yn-1-yl)oxy]acetyl}amino)methyl]benzamide], the “expression” value [1] is reported as “induced expression”.
In the case of `Nc1ccccc1NC(=O)c1ccc(CNC(=O)OCc2cccnc2)cc1` [Entinostat, Pyridin-3-ylmethyl (4-((2-aminophenyl)-carbamoyl)benzyl)carbamate, reference compound], the “Body weights (Final Day) (Mean ± SD)” value [9, 12] is reported as 26.5 ± 1.58, the “Log10 CFU/g [Mean ± SD] Blood” value [9, 12] is reported as “BLOQ” and the “Log10 CFU/g [Mean ± SD] Kidneys” value [9, 12] is reported as “BLOQ”. The “Log10 CFU/g [Mean ± SD] Liver” value [9, 12] was “BLOQ”, the “Log10 CFU/g [Mean ± SD] Spleen” value [9, 12] was “BLOQ” and the “Clinical observation (Mean Score) Hunched Posture” value ([9]; Day (0)) was 0.0. For the same molecule, the “Clinical observation (Mean Score) Rough coat” value ([9]; Day (0)) was 0.0, the “Clinical observation (Mean Score) hyperpnea” value ([9]; Day (0)) was 0.0 and the “Clinical observation (Mean Score) Hunched Posture” value ([9]; Day (1)) was 0.0. For the same molecule, the “Clinical observation (Mean Score) Rough coat” value ([9]; Day (1)) was 0.0, the “Clinical observation (Mean Score) hyperpnea” value ([9]; Day (1)) was 0.0 and the “Clinical observation (Mean Score) Hunched Posture” value ([9]; Day (2)) was 0.0. The “Clinical observation (Mean Score) Rough coat” value ([9]; Day (2)) was 0.0, the “Clinical observation (Mean Score) hyperpnea” value ([9]; Day (2)) was 0.0 and the “Clinical observation (Mean Score) Hunched Posture” value ([9]; Day (3)) was 0.0. The “Clinical observation (Mean Score) Rough coat” value ([9]; Day (3)) was 0.0, the “Clinical observation (Mean Score) hyperpnea” value ([9]; Day (3)) was 0.0 and the “Clinical observation (Mean Score) Hunched Posture” value ([9]; Day (4)) was 0.0. For the same molecule, the “Clinical observation (Mean Score) Rough coat” value ([9]; Day (4)) was 0.0, the “Clinical observation (Mean Score) hyperpnea” value ([9]; Day (4)) was 0.0 and the “Clinical observation (Mean Score) Hunched Posture” value ([9]; Day (5)) was 0.0. For the same molecule, the “Clinical observation (Mean Score) Rough coat” value ([9]; Day (5)) was 0.1, the “Clinical observation (Mean Score) hyperpnea” value ([9]; Day (5)) was 0.0 and the “Clinical observation (Mean Score) Hunched Posture” value ([9]; Day (6)) was 0.0. The “Clinical observation (Mean Score) Rough coat” value ([9]; Day (6)) was 0.1, the “Clinical observation (Mean Score) hyperpnea” value ([9]; Day (6)) was 0.0 and the “Clinical observation (Mean Score) Hunched Posture” value ([9]; Day (7)) was 0.0. For the same molecule, the “Clinical observation (Mean Score) Rough coat” value ([9]; Day (7)) was 0.2, the “Clinical observation (Mean Score) hyperpnea” value ([9]; Day (7)) was 0.0 and the “Clinical observation (Mean Score) Hunched Posture” value ([9]; Day (−1)) was 0.0. The “Clinical observation (Mean Score) Rough coat” value ([9]; Day (−1)) was 0.0, the “Clinical observation (Mean Score) hyperpnea” value ([9]; Day (−1)) was 0.0 and the “Clinical observation (Mean Score) Hunched Posture” value ([9]; Day (−2)) was 0.0. The “Clinical observation (Mean Score) Rough coat” value ([9]; Day (−2)) was 0.0, the “Clinical observation (Mean Score) hyperpnea” value ([9]; Day (−2)) was 0.0 and the “Bacteria in treated animals” value ([9]; day 7, compound 1 at 50 mg/kg) was “BLOQ”. The “Kidney -Raw data on Vancomycin (32 μg/ml) plates” value [9, 13] was “BLOQ”, the “Liver-Raw data on Vancomycin (32 μg/ml) plates” value [9, 13] was “BLOQ” and the “Spleen -Raw data on Vancomycin (32 μg/ml) plates” value [9, 13] was “BLOQ”. For the same molecule, the “Blood -Raw data on Vancomycin (32 μg/ml) plates - on day 7 PI” value ([9]; individual animals, day 7 PI, 1 mg/kg, PO, twice daily(q12h), 9 days) was “BLOQ” and the “clinical condition of animals” value ([9]; treated groups) was “apparently normal”.
